Values joined by “and” are separate entries in the source; they are usually repeats but may differ in a detail not shown here. Identical values can stand only once.
System: DYT-TOR1A MEF EVs
Assay: Quantitative LC-MS/MS proteomics of EVs from drug-treated DYT-TOR1A MEF cultures (ritonavir, salubrinal)
Assay type: cell-based, mouse
Conditions: 24 h

With `CC(C)c1nc(CN(C)C(=O)N[C@H](C(=O)N[C@@H](Cc2ccccc2)C[C@H](O)[C@H](Cc2ccccc2)NC(=O)OCc2cncs2)C(C)C)cs1` [ritonavir] the “DYT-TOR1A genotype-disrupted EV proteins (n=363) with significant changes in abundance following ritonavir treatment” value (20 μM ritonavir, p≤0.05) was > 60% and 63%, the “DYT-TOR1A genotype-dependent protein disruptions changed by ritonavir in the corrective direction” value (20 μM) was 95% and the “putative DYT biomarkers with ritonavir effects on protein abundance in the corrective direction” value (20 μM, independent of p-value, of 363 proteins) was 344/363. The “DYT EV proteome significantly modified by ritonavir” value (20 μM, uncorrected p<0.05, 1974 proteins) was 29%, the “Acaa1a (ACAA1) EV abundance Log2_FC” value (DYT1+RTV/DYT1, 20 μM) was 0.8675 and the “Ano6 (ANO6) EV abundance Log2_FC” value (DYT1+RTV/DYT1, 20 μM) was 0.08584. For the same compound, the “Ap1b1 (AP1B1) EV abundance Log2_FC” value (DYT1+RTV/DYT1, 20 μM) was 1.328, the “Arl8b (ARL8B) EV abundance Log2_FC” value (DYT1+RTV/DYT1, 20 μM) was 0.4007 and the “Bzw2 (BZW2) EV abundance Log2_FC” value (DYT1+RTV/DYT1, 20 μM) was 0.8082. For the same compound, the “Cryab (CRYAB) EV abundance Log2_FC” value (DYT1+RTV/DYT1, 20 μM) was 0.42, the “DIst (DLST) EV abundance Log2_FC” value (DYT1+RTV/DYT1, 20 μM) was −0.4459 and the “Ehd4 (EHD4) EV abundance Log2_FC” value (DYT1+RTV/DYT1, 20 μM) was 0.07182. The “Flna (FLNA) EV abundance Log2_FC” value (DYT1+RTV/DYT1, 20 μM) was 0.3721, the “Fscn1 (FSCN1) EV abundance Log2_FC” value (DYT1+RTV/DYT1, 20 μM) was 0.402 and the “Gart (GART) EV abundance Log2_FC” value (DYT1+RTV/DYT1, 20 μM) was 0.677. The “Hist1h1b (H1-5) EV abundance Log2_FC” value (DYT1+RTV/DYT1, 20 μM) was 0.9834, the “Hnrnpc (HNRNPC) EV abundance Log2_FC” value (DYT1+RTV/DYT1, 20 μM) was −0.1273 and the “Ipo9 (IPO9) EV abundance Log2_FC” value (DYT1+RTV/DYT1, 20 μM) was 1.122. For the same compound, the “Jam3 (JAM3) EV abundance Log2_FC” value (DYT1+RTV/DYT1, 20 μM) was −1.301, the “Lipg (LIPG) EV abundance Log2_FC” value (DYT1+RTV/DYT1, 20 μM) was 1.299 and the “Lrrc59 (LRRC59) EV abundance Log2_FC” value (DYT1+RTV/DYT1, 20 μM) was 0.1624. For the same compound, the “Mapk3 (MAPK3) EV abundance Log2_FC” value (DYT1+RTV/DYT1, 20 μM) was 1.986, the “Mars (MARS1) EV abundance Log2_FC” value (DYT1+RTV/DYT1, 20 μM) was 0.5148 and the “Mrc2 (MRC2) EV abundance Log2_FC” value (DYT1+RTV/DYT1, 20 μM) was −0.09834. The “Myh9 (MYH9) EV abundance Log2_FC” value (DYT1+RTV/DYT1, 20 μM) was −0.00905, the “Ndnf (NDNF) EV abundance Log2_FC” value (DYT1+RTV/DYT1, 20 μM) was 0.4697 and the “Pcmt1 (PCMT1) EV abundance Log2_FC” value (DYT1+RTV/DYT1, 20 μM) was 2.547. For the same compound, the “Pi4ka (PI4KA) EV abundance Log2_FC” value (DYT1+RTV/DYT1, 20 μM) was −0.3588, the “Pitpnb (PITPNB) EV abundance Log2_FC” value (DYT1+RTV/DYT1, 20 μM) was 0.7296 and the “Prpsap2 (PRPSAP2) EV abundance Log2_FC” value (DYT1+RTV/DYT1, 20 μM) was −0.08407. The “Psmc5 (PSMC5) EV abundance Log2_FC” value (DYT1+RTV/DYT1, 20 μM) was 0.4559, the “Psmd12 (PSMD12) EV abundance Log2_FC” value (DYT1+RTV/DYT1, 20 μM) was 1.09 and the “Psme4 (PSME4) EV abundance Log2_FC” value (DYT1+RTV/DYT1, 20 μM) was 1.371. The “Ptma (PTMA) EV abundance Log2_FC” value (DYT1+RTV/DYT1, 20 μM) was −0.8532, the “Rap2b (RAP2B) EV abundance Log2_FC” value (DYT1+RTV/DYT1, 20 μM) was 0.3342 and the “Rbm3 (RBM3) EV abundance Log2_FC” value (DYT1+RTV/DYT1, 20 μM) was −0.1048. The “Rhoa (RHOA) EV abundance Log2_FC” value (DYT1+RTV/DYT1, 20 μM) was 0.1985, the “Rpl10 (RPL10) EV abundance Log2_FC” value (DYT1+RTV/DYT1, 20 μM) was 0.5214 and the “Rpl13a (RPL13A) EV abundance Log2_FC” value (DYT1+RTV/DYT1, 20 μM) was 0.6732. The “Rps13 (RPS13) EV abundance Log2_FC” value (DYT1+RTV/DYT1, 20 μM) was 0.02007, the “Sec31a (SEC31A) EV abundance Log2_FC” value (DYT1+RTV/DYT1, 20 μM) was 0.8357 and the “Slc2a1 (SLC2A1) EV abundance Log2_FC” value (DYT1+RTV/DYT1, 20 μM) was −0.03153. For the same compound, the “Stom (STOM) EV abundance Log2_FC” value (DYT1+RTV/DYT1, 20 μM) was 0.1986, the “Tardbp (TARDBP) EV abundance Log2_FC” value (DYT1+RTV/DYT1, 20 μM) was 0.2272 and the “Tgfb2 (TGFB2) EV abundance Log2_FC” value (DYT1+RTV/DYT1, 20 μM) was −0.7218. For the same compound, the “Tln1 (TLN1) EV abundance Log2_FC” value (DYT1+RTV/DYT1, 20 μM) was 0.1451, the “Tln2 (TLN2) EV abundance Log2_FC” value (DYT1+RTV/DYT1, 20 μM) was 0.6441 and the “Tubb1 (TUBB1) EV abundance Log2_FC” value (DYT1+RTV/DYT1, 20 μM) was −0.05972. The “Usp7 (USP7) EV abundance Log2_FC” value (DYT1+RTV/DYT1, 20 μM) was 1.189, the “Wdr26 (WDR26) EV abundance Log2_FC” value (DYT1+RTV/DYT1, 20 μM) was 1.2 and the “Zyx (ZYX) EV abundance Log2_FC” value (DYT1+RTV/DYT1, 20 μM) was −0.3666. The “Acaa1a (ACAA1) EV abundance Cohen's d” value (DYT + RTV/DYT, 20 μM) was 1.381, the “Ano6 (ANO6) EV abundance Cohen's d” value (DYT + RTV/DYT, 20 μM) was 0.2001 and the “Ap1b1 (AP1B1) EV abundance Cohen's d” value (DYT + RTV/DYT, 20 μM) was 3.258. For the same compound, the “Arl8b (ARL8B) EV abundance Cohen's d” value (DYT + RTV/DYT, 20 μM) was 0.9032, the “Bzw2 (BZW2) EV abundance Cohen's d” value (DYT + RTV/DYT, 20 μM) was 1.685 and the “Cryab (CRYAB) EV abundance Cohen's d” value (DYT + RTV/DYT, 20 μM) was 0.7088. For the same compound, the “DIst (DLST) EV abundance Cohen's d” value (DYT + RTV/DYT, 20 μM) was −1.437, the “Ehd4 (EHD4) EV abundance Cohen's d” value (DYT + RTV/DYT, 20 μM) was 0.2557 and the “Flna (FLNA) EV abundance Cohen's d” value (DYT + RTV/DYT, 20 μM) was 1.357. The “Fscn1 (FSCN1) EV abundance Cohen's d” value (DYT + RTV/DYT, 20 μM) was 2.995, the “Gart (GART) EV abundance Cohen's d” value (DYT + RTV/DYT, 20 μM) was 2.137 and the “Hist1h1b (H1-5) EV abundance Cohen's d” value (DYT + RTV/DYT, 20 μM) was 1.182. For the same compound, the “Hnrnpc (HNRNPC) EV abundance Cohen's d” value (DYT + RTV/DYT, 20 μM) was −0.2031, the “Ipo9 (IPO9) EV abundance Cohen's d” value (DYT + RTV/DYT, 20 μM) was 4.135 and the “Jam3 (JAM3) EV abundance Cohen's d” value (DYT + RTV/DYT, 20 μM) was −2.624. The “Lipg (LIPG) EV abundance Cohen's d” value (DYT + RTV/DYT, 20 μM) was 2.834, the “Lrrc59 (LRRC59) EV abundance Cohen's d” value (DYT + RTV/DYT, 20 μM) was 0.8879 and the “Mapk3 (MAPK3) EV abundance Cohen's d” value (DYT + RTV/DYT, 20 μM) was 2.384. For the same compound, the “Mars (MARS1) EV abundance Cohen's d” value (DYT + RTV/DYT, 20 μM) was 2.211, the “Mrc2 (MRC2) EV abundance Cohen's d” value (DYT + RTV/DYT, 20 μM) was −0.4039 and the “Myh9 (MYH9) EV abundance Cohen's d” value (DYT + RTV/DYT, 20 μM) was −0.03876. The “Ndnf (NDNF) EV abundance Cohen's d” value (DYT + RTV/DYT, 20 μM) was 0.353, the “Pcmt1 (PCMT1) EV abundance Cohen's d” value (DYT + RTV/DYT, 20 μM) was 5.975 and the “Pi4ka (PI4KA) EV abundance Cohen's d” value (DYT + RTV/DYT, 20 μM) was −0.6453. The “Pitpnb (PITPNB) EV abundance Cohen's d” value (DYT + RTV/DYT, 20 μM) was 2.824, the “Prpsap2 (PRPSAP2) EV abundance Cohen's d” value (DYT + RTV/DYT, 20 μM) was −0.1421 and the “Psmc5 (PSMC5) EV abundance Cohen's d” value (DYT + RTV/DYT, 20 μM) was 2.883. The “Psmd12 (PSMD12) EV abundance Cohen's d” value (DYT + RTV/DYT, 20 μM) was 10.6, the “Psme4 (PSME4) EV abundance Cohen's d” value (DYT + RTV/DYT, 20 μM) was 3.22 and the “Ptma (PTMA) EV abundance Cohen's d” value (DYT + RTV/DYT, 20 μM) was −2.366. The “Rap2b (RAP2B) EV abundance Cohen's d” value (DYT + RTV/DYT, 20 μM) was 0.7129, the “Rbm3 (RBM3) EV abundance Cohen's d” value (DYT + RTV/DYT, 20 μM) was −0.4328 and the “Rhoa (RHOA) EV abundance Cohen's d” value (DYT + RTV/DYT, 20 μM) was 0.3039. For the same compound, the “Rpl10 (RPL10) EV abundance Cohen's d” value (DYT + RTV/DYT, 20 μM) was 0.7944, the “Rpl13a (RPL13A) EV abundance Cohen's d” value (DYT + RTV/DYT, 20 μM) was 0.9222 and the “Rps13 (RPS13) EV abundance Cohen's d” value (DYT + RTV/DYT, 20 μM) was 0.06202. For the same compound, the “Sec31a (SEC31A) EV abundance Cohen's d” value (DYT + RTV/DYT, 20 μM) was 4.402, the “Slc2a1 (SLC2A1) EV abundance Cohen's d” value (DYT + RTV/DYT, 20 μM) was −0.04516 and the “Stom (STOM) EV abundance Cohen's d” value (DYT + RTV/DYT, 20 μM) was 0.4181. For the same compound, the “Tardbp (TARDBP) EV abundance Cohen's d” value (DYT + RTV/DYT, 20 μM) was 0.6116, the “Tgfb2 (TGFB2) EV abundance Cohen's d” value (DYT + RTV/DYT, 20 μM) was −1.388 and the “Tln1 (TLN1) EV abundance Cohen's d” value (DYT + RTV/DYT, 20 μM) was 1.026. The “Tln2 (TLN2) EV abundance Cohen's d” value (DYT + RTV/DYT, 20 μM) was 1.031, the “Tubb1 (TUBB1) EV abundance Cohen's d” value (DYT + RTV/DYT, 20 μM) was −0.1131 and the “Usp7 (USP7) EV abundance Cohen's d” value (DYT + RTV/DYT, 20 μM) was 7.143. For the same compound, the “Wdr26 (WDR26) EV abundance Cohen's d” value (DYT + RTV/DYT, 20 μM) was 3.714, the “Zyx (ZYX) EV abundance Cohen's d” value (DYT + RTV/DYT, 20 μM) was −0.7038 and the “Pearson r between ritonavir and salubrinal effects on putative DYT-TOR1A biomarker proteins” value (DYT-TOR1A MEF EVs, 20 μM each) was 0.47.
